Laboratory results published in paper PMC10095193, “Myokine Musclin Is Critical for Exercise-Induced Cardiac Conditioning” (International Journal of Molecular Sciences, 2023).
Residues, ends and D or L forms follow the SMILES beside them.

Assay: Synthetic musclin peptide plasma elimination half-life and volume of distribution (NMR of plasma after jugular vein injection)
Format: in vivo, mouse
Description: The musclin [^13C,^15N-A26-V27]-labeled peptide sequence used was as follows: […], corresponding to amino acids 80–112; GenBank accession no. AAS87598.1 (Bio-synthesis, Inc. Lewisville, TX, USA). A peptide was synthesized with 98% purity, counter-ion exchange (TFA to Cl), and pH adjustment (Bio-synthesis, Inc. Lewisville, TX, USA).
For infusion, 1.7 mg of the chemically synthesized [^13C,^15N-A26-V27]-labeled musclin peptide was dissolved in 300 µL of PBS. This musclin solution was injected into the jugular vein. A 100 µL blood sample was then drawn from the carotid artery at 1, 3, 5, 7, 10, and 15 min after the peptide infusion. Blood was mixed with 5 µL of 10% NaEDTA and 1 µL of peptidase inhibitor cocktail (Sigma, St. Louis, MI, USA) and kept on ice, then centrifuged at 4 °C for 45 min at 14,000 rpm. Plasma was removed and stored at −80 °C for NMR studies.
All NMR spectra were acquired at 5 °C on a Bruker Avance II 800 MHz NMR spectrometer equipped with a TCI cryoprobe. 100 µL of plasma (see above) was added 150 µL NMR buffer containing 50 mM sodium phosphate, pH 7.1 with a final volume of 250 µL in 8.5% D2O/91.5% H2O. This sample was then transferred to a Shigemi NMR tube for NMR studies. One-dimensional (1D) ^1H, two-dimensional (2D) ^15N/^1H-heteronuclear single-quantum correlation (HSQC), 2D ^13C/^1H-HSQC with constant time experiment (HSQC-CT), and 2D ^15N/^1H-slice of the three-dimensional (3D) HNCO experiment were acquired for each blood sample drawn at different times after peptide infusion. The collected NMR data were processed using NMRPipe and analyzed using NMRView. The musclin peptide concentration present in these blood samples was calibrated by using a known amount of chemically synthesized [^13C,^15N-A26-V27]-labeled musclin peptide. The peak intensity of these acquired NMR spectra was measured and fitted to the equation for half-life in exponential decay using GraphPad Prism (GraphPad Software version 9.4.1).

CC(C)C[C@H](NC(=O)[C@H](CCCNC(=N)N)NC(=O)[C@H](CC(=O)O)NC(=O)[C@H](CC(C)C)NC(=O)[C@@H]1CCCN1C(=O)[C@H](CO)NC(=O)CNC(=O)[C@H](Cc1ccccc1)NC(=O)CNC(=O)[C@H](CO)NC(=O)[C@H](Cc1ccccc1)NC(=O)[C@@H](N)CO)C(=O)N[C@@H](CO)C(=O)N[C@@H](C)C(=O)NCC(=O)N[C@@H](CO)C(=O)N[C@H](C(=O)N[C@@H](CCC(=O)O)C(=O)N[C@@H](Cc1c[nH]cn1)C(=O)N[C@@H](CCCNC(=N)N)C(=O)NCC(=O)N[C@@H](CCCCN)C(=O)N[C@@H](CCC(N)=O)C(=O)N[C@@H](CCCNC(=N)N)C(=O)N[C@@H](CCCCN)C(=O)N[C@@H](C)C(=O)N[C@H](C(=O)N[C@@H](CC(=O)O)C(=O)N[C@@H](Cc1c[nH]cn1)C(=O)N[C@@H](CO)C(=O)N[C@@H](CCCCN)C(=O)N[C@@H](CCCCN)C(=O)N[C@@H](CCCNC(=N)N)C(=O)O)C(C)C)C(C)C (H-SFSGFGSPLDRLSAGSVEHRGKQRKAVDHSKKR-OH; N-terminus and C-terminus assumed)
Cl, clearance = Ke × Vd (calculated for a mouse of 27 g): 1.71 mL/min
C0 (in vivo, iv, mouse, 1.7 mg i.v. (jugular vein), NMR calibrated with known amount of labeled peptide, read-out: initial plasma concentration): 36 µM
half-life (in vivo, iv, mouse, 1.7 mg in 300 µL PBS injected into jugular vein, carotid artery blood at 1, 3, 5, 7, 10, 15 min, plasma NMR at 5 °C, HNCO (2D) peak intensities fitted to exponential decay, read-out: plasma elimination half-life (t ½)): 4.6 min
volume of distribution (Vd) per g body weight (mouse of 31 g, Vd = administered dose/initial concentration, 1.7 mg i.v. (jugular vein)): 0.419 ml/g of BW
Ke, elimination rate = 0.693/T1/2 (mouse, i.v. (jugular vein)): 0.151 min⁻¹
Vd (mouse, in vivo, iv, for mice of 31 g, 1.7 mg/0.131 mg/mL): 0.013 L
